Reference: patent publication US11214803B2, “Modulators of YAP1 expression” (Ionis Pharmaceuticals, Inc., priority 2019, dated 2022)
Marks after values point to notes of the source that are not given here. Strand notation (5' to 3'): a small letter for the sugar, then the base; units joined by * are phosphorothioate-linked, units joined directly phosphodiester-linked; [ ] holds rarer units or linkages, { } end groups; capitals alone tell only the bases. k = constrained ethyl (cEt); [5mC] = 5-methylcytosine; d = 2'-deoxy (DNA)

test system: Yap1 mRNA; assay: Antisense inhibition of human Yap1 in A-431 cells by cEt gapmers, single dose (Example 4, RTS4814); assay type: cell-based; conditions: Table 14; A-431 cells, 5,000 cells per well, free uptake, 2,000 nM, approximately 48 hours; RTS4814; normalized to RIBOGREEN; Yap1 mRNA relative to untreated control; * = targets amplicon region of primer probe set
Method in brief: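 Values are % UTC: Yap1 mRNA by quantitative RT-PCR, normalized to RIBOGREEN total RNA. Cells were exposed ~48 h to 2,000 nM oligonucleotide without transfection. Oligonucleotides were 16-nucleoside gapmers with three cEt nucleosides per wing, ten-deoxy gap, P=S linkages throughout.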

Row | Substance | YAP1 (% UTC)
1 | 1075040 (antisense kT*kT*kA*dT*dA*dA*dA*dG*dA*dG*dG*d[5mC]*dT*k[5mC]*kA*kG) [Compound 1075040] | 10
2 | 1074272 (antisense kT*kA*kT*dA*dG*dT*dA*dA*dA*dT*dT*dT*d[5mC]*kT*k[5mC]*k[5mC]) [Compound 1074272] | 16
3 | 1076416 (kA*k[5mC]*k[5mC]*dG*dA*dA*dA*dT*dG*dA*dT*dA*d[5mC]*kT*kG*kA; antisense) [Compound 1076416] | 8
4 | 1074112 (kT*k[5mC]*k[5mC]*dA*dA*d[5mC]*dT*d[5mC]*d[5mC]*d[5mC]*dT*dT*dG*kA*k[5mC]*kG; antisense) [Compound 1074112] | 83
5 | 1075008 (antisense kT*kA*kA*dT*d[5mC]*dG*dA*dA*d[5mC]*dA*dT*dT*dG*kT*kG*kT) [Compound 1075008] | 61
6 | 1075776 (kA*kT*kG*dT*dG*dA*dT*dA*dT*dG*dG*dA*dT*kT*k[5mC]*kT; antisense) [Compound 1075776] | 10
7 | 1074944 (antisense kA*kA*kA*dA*d[5mC]*d[5mC]*d[5mC]*dT*dT*dT*dG*dG*dT*k[5mC]*kT*k[5mC]) [Compound 1074944] | 89
8 | 1075968 (kT*kA*kT*dT*dT*dA*dA*dG*d[5mC]*d[5mC]*dA*dA*dA*k[5mC]*k[5mC]*kG; antisense) [Compound 1075968] | 5
9 | 1074976 (antisense kT*kT*k[5mC]*dT*dA*dT*dT*dG*dG*dA*dA*dG*dA*k[5mC]*k[5mC]*kA) [Compound 1074976] | 35

same assay, conditions: Table 15; A-431 cells, 5,000 cells per well, free uptake, 2,000 nM, approximately 48 hours; RTS4814; normalized to RIBOGREEN; Yap1 mRNA relative to untreated control; * = targets amplicon region of primer probe set

Row | Substance | YAP1 (% UTC)
10 | 1076033 (k[5mC]*kA*kT*dT*dA*dG*dT*dA*dG*dG*dT*dA*dT*kT*kT*k[5mC]; antisense) [Compound 1076033] | 8 % UTC
11 | 1076385 (kA*kT*kA*dT*dA*dA*dG*dG*dG*dA*d[5mC]*dT*dT*kG*k[5mC]*kT; antisense) [Compound 1076385] | 32 % UTC
12 | 1076065 (k[5mC]*kT*kT*dT*dA*dG*dT*dA*dA*d[5mC]*dA*d[5mC]*dG*kA*kA*kT; antisense) [Compound 1076065] | 36 % UTC
13 | 1075969 (kG*kT*kA*dT*dT*dT*dA*dA*dG*d[5mC]*d[5mC]*dA*dA*kA*k[5mC]*k[5mC]; antisense) [Compound 1075969] | 11 % UTC
14 | 1074369 (antisense kT*kG*kA*dT*dA*dG*dT*dA*dT*d[5mC]*dA*d[5mC]*d[5mC]*kT*kG*kT) [Compound 1074369] | 19 % UTC
15 | 1074433 (antisense kA*kA*kG*dT*d[5mC]*dT*dG*dA*dG*dT*dA*dT*dT*kT*kA*kG) [Compound 1074433] | 5* % UTC
16 | 1074497 (k[5mC]*kA*kA*dT*dA*dA*d[5mC]*d[5mC]*dA*dT*d[5mC]*d[5mC]*d[5mC]*kA*kA*kG; antisense) [Compound 1074497] | 26 % UTC

same assay, conditions: Table 16; A-431 cells, 5,000 cells per well, free uptake, 2,000 nM, approximately 48 hours; RTS4814; normalized to RIBOGREEN; Yap1 mRNA relative to untreated control cells

Row | Substance | YAP1 (% UTC)
17 | 1076194 (kT*kT*kT*dA*dA*dT*dA*d[5mC]*dA*d[5mC]*dA*dG*dG*kT*kT*k[5mC]; antisense) [Compound 1076194] | 22
18 | 1075106 (antisense k[5mC]*kA*kA*dA*dT*dT*dA*dT*dA*dA*dG*dG*dT*k[5mC]*k[5mC]*kT) [Compound 1075106] | 10
19 | 1075618 (kT*kT*kT*dT*dA*dA*dG*dA*dA*d[5mC]*dG*dA*d[5mC]*kA*kT*kA; antisense) [Compound 1075618] | 69
20 | 1074946 (antisense k[5mC]*k[5mC]*kA*dA*dA*dA*d[5mC]*d[5mC]*d[5mC]*dT*dT*dT*dG*kG*kT*k[5mC]) [Compound 1074946] | 109
21 | 1074786 (kA*kA*k[5mC]*d[5mC]*dA*dT*dA*dA*dG*dT*dA*dG*dA*kT*k[5mC]*kT; antisense) [Compound 1074786] | 28
22 | 1076258 (k[5mC]*kT*kT*dT*dA*dG*dG*dT*dG*d[5mC]*d[5mC]*dT*d[5mC]*k[5mC]*kT*kT; antisense) [Compound 1076258] | 10
23 | 1075074 (antisense kT*kA*kT*dA*dG*dT*dA*dA*dG*dA*d[5mC]*dT*dA*kA*kT*k[5mC]) [Compound 1075074] | 105

same assay, conditions: Table 17; A-431 cells, 5,000 cells per well, free uptake, 2,000 nM, approximately 48 hours; RTS4814; normalized to RIBOGREEN; Yap1 mRNA relative to untreated control cells

Row | Substance | YAP1 (% UTC)
24 | 1076483 (antisense kA*k[5mC]*kG*dG*dG*dA*dA*dA*dT*d[5mC]*dA*dT*dA*kT*kA*kG) [Compound 1076483] | 5
25 | 1074275 (antisense k[5mC]*kA*kA*dG*dA*dG*dG*dT*dG*dG*dT*d[5mC]*dT*kT*kG*kT) [Compound 1074275] | 73
26 | 1074595 (antisense kT*kA*kG*dA*dA*dG*dT*dA*dG*dG*dA*dG*d[5mC]*kA*kA*kG) [Compound 1074595] | 4

same assay, conditions: Yap1 mRNA remaining as percent of untreated control; 3-10-3 cEt gapmers; A-431 cells; Table 36

Row | Substance | YAP1 (% UTC)
27 | 1076246 (kT*k[5mC]*k[5mC]*dT*dA*dA*dA*dA*dA*dA*d[5mC]*dT*dA*kG*kT*kG; antisense) [compound 1076246] | 75 % UTC
28 | 1074422 (kA*kA*kA*d[5mC]*dA*dG*dG*d[5mC]*dT*d[5mC]*dA*d[5mC]*dT*kT*k[5mC]*k[5mC]; antisense) [compound 1074422] | 9* % UTC
29 | 1075510 (kG*kA*kA*dT*dA*dA*d[5mC]*dA*d[5mC]*dA*dT*dA*dA*kT*k[5mC]*k[5mC]; antisense) [compound 1075510] | 83 % UTC
30 | 1074966 (antisense kA*kT*kT*dG*dA*dA*dG*dT*dG*dT*dT*dT*dA*kG*kG*k[5mC]) [compound 1074966] | 9 % UTC
31 | 1075446 (antisense k[5mC]*kT*kA*dT*dA*dA*dA*dT*d[5mC]*d[5mC]*dT*d[5mC]*dA*kT*kG*kT) [compound 1075446] | 87 % UTC
32 | 1074870 (kG*kT*kA*dA*dG*dT*dA*d[5mC]*d[5mC]*dT*dA*dA*d[5mC]*kA*kT*kA; antisense) [compound 1074870] | 20 % UTC
33 | 1075414 (antisense k[5mC]*kA*kT*dA*d[5mC]*dT*dA*dA*dT*d[5mC]*d[5mC]*d[5mC]*dT*k[5mC]*kT*kT) [compound 1075414] | 41 % UTC
34 | 1074326 (antisense kA*k[5mC]*kG*d[5mC]*dA*dG*dG*dG*d[5mC]*dT*dA*dA*d[5mC]*kT*k[5mC]*k[5mC]) [compound 1074326] | 36 % UTC
35 | 1075606 (antisense kG*k[5mC]*kT*dA*dA*dA*d[5mC]*d[5mC]*dT*dA*d[5mC]*dA*d[5mC]*kG*k[5mC]*kT) [compound 1075606] | 82 % UTC
36 | 1076374 (antisense kA*kT*kA*dA*d[5mC]*dG*dG*dA*dT*dA*dT*dA*d[5mC]*kA*kA*kT) [compound 1076374] | 15 % UTC
37 | 1076150 (kA*kT*kT*dT*dA*dT*dT*dA*dA*d[5mC]*dT*d[5mC]*dA*k[5mC]*kG*kA; antisense) [compound 1076150] | 11 % UTC

same assay, conditions: Yap1 mRNA remaining as percent of untreated control; 3-10-3 cEt gapmers; A-431 cells; Table 37

Row | Substance | YAP1 (% UTC)
38 | 1075895 (antisense kA*k[5mC]*kT*d[5mC]*dG*dA*dA*dA*dG*d[5mC]*dT*dG*dG*kG*k[5mC]*k[5mC]) [compound 1075895] | 38
39 | 1074839 (kT*kA*kT*dA*dA*d[5mC]*dA*dA*d[5mC]*dA*dT*dG*d[5mC]*kT*kT*kG; antisense) [compound 1074839] | 33

same assay, conditions: table after Table 37, headed TABLE 32 (gapmers targeting SEQ ID NO.: 3); A-431 cells, free uptake, 2,000 nM, approximately 48 hours, RTS4814

Row | Substance | YAP1 (% UTC)
40 | 1074881 (k[5mC]*kT*kA*dA*d[5mC]*dT*d[5mC]*d[5mC]*dT*dG*d[5mC]*d[5mC]*dG*kA*kA*kG; antisense) [compound 1074881] | 76
